Data published in patent US9573911B2, “Diphosphate mimetics and uses thereof” (President and Fellows of Harvard College, priority 2011, dated 2017).

Tests used:
Assay in all cases: Kinase profiling, Invitrogen Z'-LYTE
Format in all cases: biochemical
Conditions in all cases: Table 2
PRKX = target: T1, PRKX (Homo sapiens, UniProt P51817)
T1 construct: purchased Invitrogen
T1 sequence (P51817 1-358): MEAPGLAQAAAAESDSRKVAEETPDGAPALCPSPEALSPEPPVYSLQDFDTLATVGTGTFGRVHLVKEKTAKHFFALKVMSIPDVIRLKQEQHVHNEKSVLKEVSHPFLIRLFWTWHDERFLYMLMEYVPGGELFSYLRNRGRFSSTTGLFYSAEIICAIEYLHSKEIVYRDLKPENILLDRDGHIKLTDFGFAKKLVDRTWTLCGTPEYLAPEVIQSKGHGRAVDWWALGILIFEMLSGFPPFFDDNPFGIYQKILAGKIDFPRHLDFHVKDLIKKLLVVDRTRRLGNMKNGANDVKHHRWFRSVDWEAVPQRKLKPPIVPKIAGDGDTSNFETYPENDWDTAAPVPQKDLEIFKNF
Description: (§1) Kinase profiling was conducted using Invitrogen Z'-LYTE screening protocol and assay conditions found at www.invitrogen.com. Compound (2) inhibited PLK1 completely at 5 μM.

SGKL (SGK3) = target: T2, SGKL (SGK3) (Homo sapiens, UniProt Q96BR1)
T2 construct: purchased Invitrogen
T2 sequence (Q96BR1 1-496): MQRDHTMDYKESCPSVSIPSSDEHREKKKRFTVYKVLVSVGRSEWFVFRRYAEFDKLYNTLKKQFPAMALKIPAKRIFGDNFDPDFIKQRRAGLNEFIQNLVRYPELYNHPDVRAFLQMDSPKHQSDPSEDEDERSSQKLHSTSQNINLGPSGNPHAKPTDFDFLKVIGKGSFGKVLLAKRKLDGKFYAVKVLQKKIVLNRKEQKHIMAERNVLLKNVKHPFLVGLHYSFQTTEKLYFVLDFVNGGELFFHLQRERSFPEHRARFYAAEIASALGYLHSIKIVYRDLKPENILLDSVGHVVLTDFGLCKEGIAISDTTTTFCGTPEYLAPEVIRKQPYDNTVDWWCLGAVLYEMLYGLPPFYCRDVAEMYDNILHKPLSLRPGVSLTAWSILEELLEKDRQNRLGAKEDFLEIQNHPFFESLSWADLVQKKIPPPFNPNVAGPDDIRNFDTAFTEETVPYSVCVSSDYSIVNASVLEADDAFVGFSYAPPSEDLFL
Description: as §1

FER = target: T3, FER (Homo sapiens, UniProt P16591)
T3 construct: purchased Invitrogen
Description: as §1

EPHA1 = target: T4, EPHA1 (Homo sapiens, UniProt P21709)
T4 construct: purchased Invitrogen
T4 sequence (P21709 26-976): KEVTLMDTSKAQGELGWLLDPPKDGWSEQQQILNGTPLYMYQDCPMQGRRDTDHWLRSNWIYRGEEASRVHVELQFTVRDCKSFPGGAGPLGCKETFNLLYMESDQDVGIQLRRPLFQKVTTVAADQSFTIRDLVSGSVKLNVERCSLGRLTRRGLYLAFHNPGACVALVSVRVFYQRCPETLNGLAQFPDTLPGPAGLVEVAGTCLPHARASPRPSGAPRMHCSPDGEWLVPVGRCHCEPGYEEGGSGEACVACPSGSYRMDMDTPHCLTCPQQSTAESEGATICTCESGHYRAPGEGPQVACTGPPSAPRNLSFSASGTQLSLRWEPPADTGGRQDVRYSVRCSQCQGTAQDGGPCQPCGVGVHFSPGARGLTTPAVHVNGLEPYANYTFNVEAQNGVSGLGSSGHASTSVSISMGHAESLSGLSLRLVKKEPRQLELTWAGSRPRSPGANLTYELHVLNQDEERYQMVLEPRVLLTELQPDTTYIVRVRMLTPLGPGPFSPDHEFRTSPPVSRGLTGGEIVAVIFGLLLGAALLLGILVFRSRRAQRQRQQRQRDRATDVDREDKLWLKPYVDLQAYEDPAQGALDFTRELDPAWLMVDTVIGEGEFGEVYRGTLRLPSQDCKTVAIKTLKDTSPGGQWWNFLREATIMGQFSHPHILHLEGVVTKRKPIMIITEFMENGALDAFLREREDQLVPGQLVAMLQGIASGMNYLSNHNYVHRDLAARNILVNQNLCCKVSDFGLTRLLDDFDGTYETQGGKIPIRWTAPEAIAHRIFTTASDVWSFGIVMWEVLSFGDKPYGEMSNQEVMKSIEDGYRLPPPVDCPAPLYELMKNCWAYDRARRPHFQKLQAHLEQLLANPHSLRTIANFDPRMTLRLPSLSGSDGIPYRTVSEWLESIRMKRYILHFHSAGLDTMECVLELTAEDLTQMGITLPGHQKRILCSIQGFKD
Description: as §1

CSK = target: T5, CSK (Homo sapiens, UniProt P41240)
T5 construct: purchased Invitrogen
Description: as §1

CDK5/p25 = target: T6, CDK5/p25 (Homo sapiens, UniProt Q00535)
T6 construct: purchased Invitrogen
Description: as §1

EEF2K = target: T7, EEF2K (Homo sapiens, UniProt O00418)
T7 construct: purchased Invitrogen
Description: as §1

RPS6KA2 (RSK3) = target: T8, RPS6KA2 (RSK3) (Homo sapiens, UniProt Q15349)
T8 construct: purchased Invitrogen
Description: as §1

NEK6 = target: T9, NEK6 (Homo sapiens, UniProt Q9HC98)
T9 construct: purchased Invitrogen
Description: as §1

MARK2 = target: T10, MARK2 (Homo sapiens, UniProt Q7KZI7)
T10 construct: purchased Invitrogen
Description: as §1

MST1R (RON) = target: T11, MST1R (RON) (Homo sapiens, UniProt Q04912)
T11 construct: purchased Invitrogen
Description: as §1

MET M1250T = target: T12, MET M1250T (Homo sapiens, UniProt P08581, M1250T)
T12 construct: purchased Invitrogen
Description: as §1

HIPK2 = target: T13, HIPK2 (Homo sapiens, UniProt Q9H2X6)
T13 construct: purchased Invitrogen
Description: as §1

T11 sequence (Q04912 25-1400): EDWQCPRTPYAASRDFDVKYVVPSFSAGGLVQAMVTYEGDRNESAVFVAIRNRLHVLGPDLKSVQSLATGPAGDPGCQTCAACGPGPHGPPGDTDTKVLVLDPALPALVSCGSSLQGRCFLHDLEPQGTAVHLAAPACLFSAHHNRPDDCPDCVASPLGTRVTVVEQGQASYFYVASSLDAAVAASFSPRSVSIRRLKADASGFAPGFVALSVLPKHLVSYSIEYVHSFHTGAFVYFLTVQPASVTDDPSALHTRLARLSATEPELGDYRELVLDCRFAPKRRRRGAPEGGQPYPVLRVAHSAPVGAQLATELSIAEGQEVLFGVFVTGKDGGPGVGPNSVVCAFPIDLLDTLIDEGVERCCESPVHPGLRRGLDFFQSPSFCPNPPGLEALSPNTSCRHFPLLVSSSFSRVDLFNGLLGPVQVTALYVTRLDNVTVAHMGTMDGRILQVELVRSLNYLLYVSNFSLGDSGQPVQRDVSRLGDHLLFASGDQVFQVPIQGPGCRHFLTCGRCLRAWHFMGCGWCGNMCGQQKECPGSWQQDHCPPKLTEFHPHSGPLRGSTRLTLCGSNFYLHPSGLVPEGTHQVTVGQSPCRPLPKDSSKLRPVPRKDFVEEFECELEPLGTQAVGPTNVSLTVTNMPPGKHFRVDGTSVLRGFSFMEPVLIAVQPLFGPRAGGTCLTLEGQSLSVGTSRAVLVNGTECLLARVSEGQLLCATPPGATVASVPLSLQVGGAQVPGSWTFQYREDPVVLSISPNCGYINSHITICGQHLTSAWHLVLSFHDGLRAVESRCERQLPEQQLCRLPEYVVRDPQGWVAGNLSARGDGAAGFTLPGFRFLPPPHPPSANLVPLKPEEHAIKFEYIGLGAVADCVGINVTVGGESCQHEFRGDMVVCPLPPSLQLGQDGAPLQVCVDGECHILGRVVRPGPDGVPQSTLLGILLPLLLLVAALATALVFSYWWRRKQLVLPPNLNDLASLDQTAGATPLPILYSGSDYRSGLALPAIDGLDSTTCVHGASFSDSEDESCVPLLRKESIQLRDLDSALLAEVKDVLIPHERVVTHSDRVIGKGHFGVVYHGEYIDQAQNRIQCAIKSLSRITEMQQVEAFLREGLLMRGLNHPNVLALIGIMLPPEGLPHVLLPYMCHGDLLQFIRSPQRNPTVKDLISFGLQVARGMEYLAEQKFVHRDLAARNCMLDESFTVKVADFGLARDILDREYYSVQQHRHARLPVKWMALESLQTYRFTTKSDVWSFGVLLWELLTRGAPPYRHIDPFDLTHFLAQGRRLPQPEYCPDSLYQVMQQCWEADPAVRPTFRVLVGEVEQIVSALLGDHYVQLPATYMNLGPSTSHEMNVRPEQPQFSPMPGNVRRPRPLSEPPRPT
T5 sequence (P41240 whole entry): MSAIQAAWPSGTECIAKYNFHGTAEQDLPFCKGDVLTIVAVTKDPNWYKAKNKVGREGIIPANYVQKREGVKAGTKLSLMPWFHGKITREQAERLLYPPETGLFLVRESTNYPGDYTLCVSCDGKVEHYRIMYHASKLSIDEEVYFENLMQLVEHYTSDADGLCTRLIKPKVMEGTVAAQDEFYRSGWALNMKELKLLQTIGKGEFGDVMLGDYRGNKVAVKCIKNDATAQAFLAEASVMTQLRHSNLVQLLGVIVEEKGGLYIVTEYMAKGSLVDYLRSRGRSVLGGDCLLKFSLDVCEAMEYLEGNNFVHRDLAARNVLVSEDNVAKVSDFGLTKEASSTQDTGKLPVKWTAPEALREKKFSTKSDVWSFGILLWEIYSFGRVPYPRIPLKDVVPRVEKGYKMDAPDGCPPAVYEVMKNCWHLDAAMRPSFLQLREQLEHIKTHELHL
T12 sequence (P08581 25-1390 M1250T): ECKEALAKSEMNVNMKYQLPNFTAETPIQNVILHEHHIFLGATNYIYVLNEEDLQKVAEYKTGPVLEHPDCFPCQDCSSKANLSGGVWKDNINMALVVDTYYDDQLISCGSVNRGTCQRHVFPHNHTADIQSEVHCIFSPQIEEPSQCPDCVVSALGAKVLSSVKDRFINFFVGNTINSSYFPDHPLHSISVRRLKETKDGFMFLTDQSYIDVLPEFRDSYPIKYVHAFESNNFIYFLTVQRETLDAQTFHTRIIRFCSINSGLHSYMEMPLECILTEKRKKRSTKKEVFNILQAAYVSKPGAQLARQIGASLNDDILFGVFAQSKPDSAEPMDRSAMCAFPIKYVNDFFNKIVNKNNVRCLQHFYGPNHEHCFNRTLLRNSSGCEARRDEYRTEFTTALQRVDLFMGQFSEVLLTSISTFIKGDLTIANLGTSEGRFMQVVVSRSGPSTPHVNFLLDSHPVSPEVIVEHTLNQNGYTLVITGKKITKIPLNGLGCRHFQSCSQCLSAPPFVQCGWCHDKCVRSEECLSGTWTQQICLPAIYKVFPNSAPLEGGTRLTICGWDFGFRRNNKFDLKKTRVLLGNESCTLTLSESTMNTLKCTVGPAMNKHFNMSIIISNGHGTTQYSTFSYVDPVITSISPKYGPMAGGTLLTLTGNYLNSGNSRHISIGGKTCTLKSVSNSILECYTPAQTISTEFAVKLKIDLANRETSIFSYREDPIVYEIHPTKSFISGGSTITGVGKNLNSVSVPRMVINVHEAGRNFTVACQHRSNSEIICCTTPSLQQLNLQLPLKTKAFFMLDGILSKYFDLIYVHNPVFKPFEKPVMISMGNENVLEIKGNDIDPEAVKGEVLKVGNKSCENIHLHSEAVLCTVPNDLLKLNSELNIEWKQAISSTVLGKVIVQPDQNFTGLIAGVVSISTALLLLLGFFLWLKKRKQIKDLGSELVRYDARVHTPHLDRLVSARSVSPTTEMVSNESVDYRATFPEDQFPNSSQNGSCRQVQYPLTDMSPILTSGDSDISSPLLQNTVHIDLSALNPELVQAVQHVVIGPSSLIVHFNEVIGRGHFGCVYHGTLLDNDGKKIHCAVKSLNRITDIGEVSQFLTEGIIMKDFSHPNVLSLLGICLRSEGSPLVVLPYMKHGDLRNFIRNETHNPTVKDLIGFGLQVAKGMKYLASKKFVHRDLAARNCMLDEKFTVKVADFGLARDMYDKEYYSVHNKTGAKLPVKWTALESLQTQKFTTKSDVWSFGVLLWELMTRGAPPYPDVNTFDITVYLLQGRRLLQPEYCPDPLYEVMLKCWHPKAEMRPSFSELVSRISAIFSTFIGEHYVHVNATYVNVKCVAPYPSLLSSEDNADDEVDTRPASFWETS
T8 sequence (Q15349 whole entry): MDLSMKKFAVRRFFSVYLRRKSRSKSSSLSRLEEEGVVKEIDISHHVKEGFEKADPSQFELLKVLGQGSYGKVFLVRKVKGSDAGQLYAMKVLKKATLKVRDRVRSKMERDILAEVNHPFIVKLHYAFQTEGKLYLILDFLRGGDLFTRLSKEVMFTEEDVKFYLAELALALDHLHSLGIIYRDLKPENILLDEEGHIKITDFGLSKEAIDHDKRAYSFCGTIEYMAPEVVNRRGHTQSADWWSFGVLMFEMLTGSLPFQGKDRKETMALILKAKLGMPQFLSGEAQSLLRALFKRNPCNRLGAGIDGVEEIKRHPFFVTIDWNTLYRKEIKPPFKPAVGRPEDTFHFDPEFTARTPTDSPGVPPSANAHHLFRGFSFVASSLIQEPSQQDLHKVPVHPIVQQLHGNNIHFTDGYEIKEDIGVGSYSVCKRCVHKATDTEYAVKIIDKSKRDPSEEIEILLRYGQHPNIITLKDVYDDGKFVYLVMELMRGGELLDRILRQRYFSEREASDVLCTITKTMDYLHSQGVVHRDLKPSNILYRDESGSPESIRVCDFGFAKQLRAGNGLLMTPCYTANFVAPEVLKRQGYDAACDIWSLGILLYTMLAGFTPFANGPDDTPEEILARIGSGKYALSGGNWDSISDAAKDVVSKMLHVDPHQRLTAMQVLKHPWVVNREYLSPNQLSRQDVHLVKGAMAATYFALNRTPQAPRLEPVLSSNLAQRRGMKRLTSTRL
T9 sequence (Q9HC98 whole entry): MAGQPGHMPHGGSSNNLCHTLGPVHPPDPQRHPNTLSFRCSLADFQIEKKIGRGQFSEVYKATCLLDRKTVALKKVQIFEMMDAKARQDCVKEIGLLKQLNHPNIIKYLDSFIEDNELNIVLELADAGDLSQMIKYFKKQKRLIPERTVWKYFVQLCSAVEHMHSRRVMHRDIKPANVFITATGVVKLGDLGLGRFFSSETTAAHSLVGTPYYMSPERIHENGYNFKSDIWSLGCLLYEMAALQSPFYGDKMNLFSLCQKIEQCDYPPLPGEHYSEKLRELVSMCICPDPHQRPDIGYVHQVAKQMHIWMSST
T3 sequence (P16591 whole entry): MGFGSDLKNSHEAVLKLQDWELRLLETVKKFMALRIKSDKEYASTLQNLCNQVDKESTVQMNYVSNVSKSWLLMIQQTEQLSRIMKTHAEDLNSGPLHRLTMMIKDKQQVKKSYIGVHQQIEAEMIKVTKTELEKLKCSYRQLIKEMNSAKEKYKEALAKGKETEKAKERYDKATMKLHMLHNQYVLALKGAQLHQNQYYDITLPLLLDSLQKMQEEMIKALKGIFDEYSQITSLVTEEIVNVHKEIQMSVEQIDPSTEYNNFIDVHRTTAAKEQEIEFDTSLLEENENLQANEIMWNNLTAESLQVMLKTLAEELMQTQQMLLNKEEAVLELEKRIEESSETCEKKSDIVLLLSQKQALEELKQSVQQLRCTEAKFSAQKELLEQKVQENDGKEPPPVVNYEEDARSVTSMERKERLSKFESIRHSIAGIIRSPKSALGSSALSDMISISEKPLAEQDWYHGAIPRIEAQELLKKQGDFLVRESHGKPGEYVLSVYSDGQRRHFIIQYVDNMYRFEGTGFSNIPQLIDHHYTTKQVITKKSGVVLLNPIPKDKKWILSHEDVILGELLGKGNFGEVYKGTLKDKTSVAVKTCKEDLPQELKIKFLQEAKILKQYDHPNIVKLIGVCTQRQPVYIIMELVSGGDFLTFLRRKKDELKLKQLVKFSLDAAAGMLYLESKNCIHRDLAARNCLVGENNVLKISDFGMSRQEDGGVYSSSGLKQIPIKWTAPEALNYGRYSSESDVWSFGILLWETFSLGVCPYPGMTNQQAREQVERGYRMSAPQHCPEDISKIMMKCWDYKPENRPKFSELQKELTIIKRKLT

## COc1ccc(OC(=O)n2c(=O)oc3cc(C(C)=O)ccc32)cc1 [Compound 2]
PRKX
  % Inhibition Point 1: −135%
  % Inhibition Point 2: −134%
  % Inhibition mean: −135%
SGKL (SGK3)
  % Inhibition Point 1: −140%
  % Inhibition Point 2: −150%
  % Inhibition mean: −145%
FER
  % Inhibition Point 1: −261%
  % Inhibition Point 2: −240%
  % Inhibition mean: −251%
EPHA1
  % Inhibition Point 1: −62%
  % Inhibition Point 2: −107%
  % Inhibition mean: −85%
CSK
  % Inhibition Point 1: −42%
  % Inhibition Point 2: −60%
  % Inhibition mean: −51%
CDK5/p25
  % Inhibition Point 1: −322%
  % Inhibition Point 2: −286%
  % Inhibition mean: −304%
EEF2K
  % Inhibition Point 1: −64%
  % Inhibition Point 2: −61%
  % Inhibition mean: −63%
RPS6KA2 (RSK3)
  % Inhibition Point 1: −266%
  % Inhibition Point 2: −267%
  % Inhibition mean: −267%
NEK6
  % Inhibition Point 1: −490%
  % Inhibition Point 2: −457%
  % Inhibition mean: −474%
MARK2
  % Inhibition Point 1: −172%
  % Inhibition Point 2: −157%
  % Inhibition mean: −164%
MST1R (RON)
  % Inhibition Point 1: −258%
  % Inhibition Point 2: −245%
  % Inhibition mean: −252%
MET M1250T
  % Inhibition Point 1: −113%
  % Inhibition Point 2: −143%
  % Inhibition mean: −128%
HIPK2
  % Inhibition Point 1: −96%
  % Inhibition Point 2: −90%
  % Inhibition mean: −93%
